Source: patent US10513694B2, “Thienopyrrole compounds and uses thereof” (PROMEGA CORPORATION, priority 2015, dated 2019)

What was measured:
NANOLUC® enzyme = NANOLUC® enzyme (Oplophorus gracilirostris, UniProt Q9GV45, A31E/A60N/A81I/F95D/I117V/K70R/L54V/L99Q/M102K/N193R/P142E/Q151K/Q38R/Q45L/V71I/Y165I); test: Inhibitor IC50 determination (NANOLUC enzyme, furimazine); format: biochemical; details: IC50 (uM), 0.4 ng/ml NANOLUC enzyme, final furimazine 10 uM (at Km)
[1] = tested on: Beta-2 Adrenergic Receptor-Nluc (B2AR-Nluc) fusion protein; test: Cell permeability, B2AR-Nluc in HEK293 -/+ digitonin; format: cell-based; details: HEK293 B2AR-Nluc -/+ 50 μg/mL digitonin; up to 2 hrs
Procedure: HEK293 were transiently transfected with Beta-2 Adrenergic Receptor-Nluc (B2AR-Nluc) fusion protein to anchor and orient Nluc cytosolically and pGEM-3z carrier DNA (1:100). 24 hrs post-transfection, cells were treated with −/+50 μg/mL digitonin to emulate a live and lytic scenario, respectively. Then, intact cells and permeabilized cells were exposed to a compound response curve of thienopyrrole compound up to 2 hrs. 10 μM furimazine (Promega Corp.) was added, and luminescence was measured. If a thienopyrrole compound (inhibitor) was permeable, the dose-response curves for both live and permeabilized cells overlapped. However, if a thienopyrrole compound was impermeable, the EC50 was right-shifted in the live cells relative to the permeabilized cells.

[2] = tested on: Nluc-ADRB2 (extracellular Nluc) or ADRB2-Nluc (intracellular Nluc); test: Cell permeability with bioluminescent imaging (HeLa, Nluc-ADRB2 / ADRB2-Nluc); format: cell-based; details: 30 μM compound, 10 μM furimazine
Procedure: HeLa cells were transiently transfected with Nluc-ADRB2 (extracellular Nluc) or ADRB2-Nluc (intracellular Nluc) to anchor and orient Nluc extracellularly or intracellularly, respectively. 24 hrs post-transfection, cells were treated with −/+30 μM of a thienopyrrole compound, JRW-0147, JRW-0013, and JRW-0344. 10 μM furimazine was added, and luminescence was detected by imaging on the Olympus LV200.

UltraGlo luciferase = test: Specificity of inhibition of Nluc luciferase: UltraGlo luciferase; format: biochemical, firefly; details: RT 2 hrs
Procedure: The following example describes the specificity of disclosed thienopyrrole compounds, JRW-0251, JRW-0344, and JRW-0147, to inhibit Nluc luciferase activity versus firefly luciferase activity, e.g., ULTRAGLO® luciferase. In a Corning 3570 assay plate, a solution containing 1 μM luciferin in Luciferase Detection Reagent (Promega Corporation V865/859) was added to the assay wells. An equal volume of titrations the thienopyrrole compounds, JRW-0251, JRW-0344, and JRW-0147 were then added to the wells. The reactions were incubated at RT for 2 hrs, and luminescence was measured on Tecan M1000 Pro plate reader.

Nluc = Nluc (Oplophorus gracilirostris, UniProt Q9GV45, A31E/A60N/A81I/F95D/I117V/K70R/L54V/L99Q/M102K/N193R/P142E/Q151K/Q38R/Q45L/V71I/Y165I); test: Multiplex RealTime-Glo / Caspase-Glo 3/7 in A549 cells; format: cell-based; design: purchased Promega Corporation; details: final, 1 hr
Chain of Nluc (Q9GV45 28-196 with tags or gaps with the stated changes limits assumed): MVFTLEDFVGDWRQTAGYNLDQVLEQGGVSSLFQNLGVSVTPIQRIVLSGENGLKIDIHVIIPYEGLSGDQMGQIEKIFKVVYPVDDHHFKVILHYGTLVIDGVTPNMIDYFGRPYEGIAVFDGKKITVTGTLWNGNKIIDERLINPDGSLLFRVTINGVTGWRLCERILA
Procedure: B) A549 cells were plated at 1,000 cells/well in 20 μL F12K media into wells of a Corning 3570 plate (n-4) and incubated overnight. Then, REALTIME-GLO™ MT Cell Viability assay reagents (Promega Corporation) were added to the wells as a 2× solution in 20 μL media. The reaction was incubated for 1 hr. 40 μL of a titration of JRW-0013 or JRW-0147 in CASPASE-GLO® 3/7 assay reagent (Promega Corporation) at 2× concentrations was added. The reactions were incubated at RT, and luminescence was determined at 1 hr.

purified Nluc enzyme = target: T1, purified Nluc enzyme (Oplophorus gracilirostris, UniProt Q9GV45, A31E/A60N/A81I/F95D/I117V/K70R/L54V/L99Q/M102K/N193R/P142E/Q151K/Q38R/Q45L/V71I/Y165I); format: biochemical; details: titration up to 100 μM final; RT 2 hrs; pro-substrate PBI-4442 + DTT
T1 construct: purchased Promega Corporation
T1 sequence (Q9GV45 28-196 with tags or gaps with the stated changes limits assumed): as above
Procedure: In a Corning 3570 assay plate, purified Nluc enzyme (Promega Corporation), 20 mM DTT, and an Nluc pro-substrate (PBI-4442, which is described in US Patent Publication No. 2013/0130289), which is converted to an Nluc substrate upon reduction with DTT, was added. Compound titrations of JRW-0004, JRW-0013, JRW-0006, JRW-0042, JRW-0138, and JRW-0147 were then made (1:2 serial dilution in PBS, 11 points plus no inhibitor control, starting at 200 μM; 100 μM final concentration in reaction). Compound titrations were added in equal volume to the wells of the assay plate. The reactions were incubated at RT for 2 hrs, and luminescence was measured on Tecan M1000 Pro plate reader. Half-maximal inhibitor (thienopyrrole compound) concentrations (IC50s) were determined using GraphPad Prism 6.03.

Chain of NANOLUC® enzyme (Q9GV45 28-196 with tags or gaps with the stated changes limits assumed): as above

For `CCN(C(=O)Cn1c(C(=O)N[C@H]2CC[C@H](C(=O)NCCCCCCS(=O)(=O)[O-])CC2)cc2sccc21)c1cccc(C)c1.[Na+]` [JRW-0344, Sodium 6-(trans-4-(4-(2-(ethyl(m-tolyl)amino)-2-oxoethyl)-4H-thieno[3,2-b]pyrrole-5-carboxamido)cyclohexane-1-carboxamido)hexane-1-sulfonate], the IC50 (NANOLUC® enzyme) was 0.077 µM, the “Cell permeability, EC50 in Live vs Lytic cells (FIGS. 17A-17C)” value [1] was “cell impermeable characterized by right shifted EC50 in Live vs. Lytic cells” and the “Inhibition of Nluc oriented extracellularly / intracellularly by imaging (FIG. 19)” value [2] was “inhibit the classic ring-like structure, but not when Nluc is orientated intracellularly”. The “Inhibition of firefly luciferase activity (Table 3)” value (UltraGlo luciferase) was “did not inhibit the firefly luciferase activity”, the “UltraGlo luciferase, Avg (luminescence)” value (UltraGlo luciferase; [cmpd] 0.1953125 μM) was 83526.33 and the “UltraGlo luciferase, S/B” value (UltraGlo luciferase; [cmpd] 0.1953125 μM) was 1.00. For the same compound, the “UltraGlo luciferase, Avg (luminescence)” value (UltraGlo luciferase; [cmpd] 0.390625 μM) was 82945.67, the “UltraGlo luciferase, S/B” value (UltraGlo luciferase; [cmpd] 0.390625 μM) was 1.00 and the “UltraGlo luciferase, Avg (luminescence)” value (UltraGlo luciferase; [cmpd] 0.78125 μM) was 82135.67. For the same compound, the “UltraGlo luciferase, S/B” value (UltraGlo luciferase; [cmpd] 0.78125 μM) was 0.99, the “UltraGlo luciferase, Avg (luminescence)” value (UltraGlo luciferase; [cmpd] 1.5625 μM) was 81368.33 and the “UltraGlo luciferase, S/B” value (UltraGlo luciferase; [cmpd] 1.5625 μM) was 0.98. The “UltraGlo luciferase, Avg (luminescence)” value (UltraGlo luciferase; [cmpd] 3.125 μM) was 80134.33, the “UltraGlo luciferase, S/B” value (UltraGlo luciferase; [cmpd] 3.125 μM) was 0.96 and the “UltraGlo luciferase, Avg (luminescence)” value (UltraGlo luciferase; [cmpd] 6.25 μM) was 83064.33. The “UltraGlo luciferase, S/B” value (UltraGlo luciferase; [cmpd] 6.25 μM) was 1.00, the “UltraGlo luciferase, Avg (luminescence)” value (UltraGlo luciferase; [cmpd] 12.5 μM) was 82454.67 and the “UltraGlo luciferase, S/B” value (UltraGlo luciferase; [cmpd] 12.5 μM) was 0.99. The “UltraGlo luciferase, Avg (luminescence)” value (UltraGlo luciferase; [cmpd] 25 μM) was 83084.00, the “UltraGlo luciferase, S/B” value (UltraGlo luciferase; [cmpd] 25 μM) was 1.00 and the “UltraGlo luciferase, Avg (luminescence)” value (UltraGlo luciferase; [cmpd] 50 μM) was 81805.00. The “UltraGlo luciferase, S/B” value (UltraGlo luciferase; [cmpd] 50 μM) was 0.98, the “UltraGlo luciferase, Avg (luminescence)” value (UltraGlo luciferase; [cmpd] 100 μM) was 79847.67 and the “UltraGlo luciferase, S/B” value (UltraGlo luciferase; [cmpd] 100 μM) was 0.96. The “UltraGlo luciferase, Avg (luminescence)” value (UltraGlo luciferase; [cmpd] 200 μM) was 77230.33 and the “UltraGlo luciferase, S/B” value (UltraGlo luciferase; [cmpd] 200 μM) was 0.93.
In the case of `CCN(C(=O)Cn1c(C(=O)N[C@H]2CC[C@H](C(=O)NCCCCCC(=O)O)CC2)cc2sccc21)c1cccc(C)c1` [JRW-0147, 6-(trans-4-(4-(2-(ethyl(m-tolyl)amino)-2-oxoethyl)-4H-thieno[3,2-b]pyrrole-5-carboxamido)cyclohexane-1-carboxamido)hexanoic acid], the IC50 (NANOLUC® enzyme) is reported as 0.094 µM, the “Cell permeability, EC50 in Live vs Lytic cells (FIGS. 17A-17C)” value [1] is reported as “cell impermeable characterized by right shifted EC50 in Live vs. Lytic cells” and the “Caspase, Avg (luminescence)” value (Nluc; Inhibitor 1.73 μM) is reported as 15580. The “Caspase, Avg (luminescence)” value (Nluc; Inhibitor 2.60 μM) was 11677, the “Caspase, Avg (luminescence)” value (Nluc; Inhibitor 3.90 μM) was 9790 and the “Caspase, Avg (luminescence)” value (Nluc; Inhibitor 5.85 μM) was 8013. For the same compound, the “Caspase, Avg (luminescence)” value (Nluc; Inhibitor 8.78 μM) was 7125, the “Caspase, Avg (luminescence)” value (Nluc; Inhibitor 13.17 μM) was 5545 and the “Caspase, Avg (luminescence)” value (Nluc; Inhibitor 19.75 μM) was 5302. The “Caspase, Avg (luminescence)” value (Nluc; Inhibitor 29.63 μM) was 4394, the “Caspase, Avg (luminescence)” value (Nluc; Inhibitor 44.44 μM) was 4367 and the “Caspase, Avg (luminescence)” value (Nluc; Inhibitor 66.67 μM) was 3427. For the same compound, the “Caspase, Avg (luminescence)” value (Nluc; Inhibitor 100 μM) was 3389, the “Inhibition of Nluc oriented extracellularly / intracellularly by imaging (FIG. 19)” value [2] was “inhibit the classic ring-like structure, but not when Nluc is orientated intracellularly” and the “Inhibition of purified Nluc enzyme (FIG. 2)” value (purified Nluc enzyme) was “capable of inhibiting purified Nluc enzyme”. The “Inhibition of firefly luciferase activity (Table 3)” value (UltraGlo luciferase) was “did not inhibit the firefly luciferase activity”, the “UltraGlo luciferase, Avg (luminescence)” value (UltraGlo luciferase; [cmpd] 0.1953125 μM) was 85561 and the “UltraGlo luciferase, S/B” value (UltraGlo luciferase; [cmpd] 0.1953125 μM) was 0.99. The “UltraGlo luciferase, Avg (luminescence)” value (UltraGlo luciferase; [cmpd] 0.390625 μM) was 84087, the “UltraGlo luciferase, S/B” value (UltraGlo luciferase; [cmpd] 0.390625 μM) was 0.97 and the “UltraGlo luciferase, Avg (luminescence)” value (UltraGlo luciferase; [cmpd] 0.78125 μM) was 84072. For the same compound, the “UltraGlo luciferase, S/B” value (UltraGlo luciferase; [cmpd] 0.78125 μM) was 0.97, the “UltraGlo luciferase, Avg (luminescence)” value (UltraGlo luciferase; [cmpd] 1.5625 μM) was 83668 and the “UltraGlo luciferase, S/B” value (UltraGlo luciferase; [cmpd] 1.5625 μM) was 0.97. The “UltraGlo luciferase, Avg (luminescence)” value (UltraGlo luciferase; [cmpd] 3.125 μM) was 82252, the “UltraGlo luciferase, S/B” value (UltraGlo luciferase; [cmpd] 3.125 μM) was 0.95 and the “UltraGlo luciferase, Avg (luminescence)” value (UltraGlo luciferase; [cmpd] 6.25 μM) was 83282. For the same compound, the “UltraGlo luciferase, S/B” value (UltraGlo luciferase; [cmpd] 6.25 μM) was 0.97, the “UltraGlo luciferase, Avg (luminescence)” value (UltraGlo luciferase; [cmpd] 12.5 μM) was 83291 and the “UltraGlo luciferase, S/B” value (UltraGlo luciferase; [cmpd] 12.5 μM) was 0.97. For the same compound, the “UltraGlo luciferase, Avg (luminescence)” value (UltraGlo luciferase; [cmpd] 25 μM) was 84033, the “UltraGlo luciferase, S/B” value (UltraGlo luciferase; [cmpd] 25 μM) was 0.97 and the “UltraGlo luciferase, Avg (luminescence)” value (UltraGlo luciferase; [cmpd] 50 μM) was 81106. For the same compound, the “UltraGlo luciferase, S/B” value (UltraGlo luciferase; [cmpd] 50 μM) was 0.94, the “UltraGlo luciferase, Avg (luminescence)” value (UltraGlo luciferase; [cmpd] 100 μM) was 80636 and the “UltraGlo luciferase, S/B” value (UltraGlo luciferase; [cmpd] 100 μM) was 0.93. The “UltraGlo luciferase, Avg (luminescence)” value (UltraGlo luciferase; [cmpd] 200 μM) was 78035 and the “UltraGlo luciferase, S/B” value (UltraGlo luciferase; [cmpd] 200 μM) was 0.90.
`CCN(C(=O)Cn1c(C(=O)N[C@H]2CC[C@H](C(=O)OC)CC2)cc2sccc21)c1cccc(C)c1` [JRW-0013, trans-methyl-4-(4-(2-(ethyl(m-tolyl)amino)-2-oxoethyl)-4H-thieno[3,2-b]pyrrole-5-carboxamido)cyclohexane-1-carboxylate] was tested, and the IC50 (NANOLUC® enzyme) was 0.14 µM, the “Cell permeability, EC50 in Live vs Lytic cells (FIGS. 17A-17C)” value [1] was “cell permeable control characterized by similar EC50 in Live vs Lytic cells” and the “Caspase, Avg (luminescence)” value (Nluc; Inhibitor 1.73 μM) was 12879. For the same compound, the “Caspase, Avg (luminescence)” value (Nluc; Inhibitor 2.60 μM) was 11813, the “Caspase, Avg (luminescence)” value (Nluc; Inhibitor 3.90 μM) was 9148 and the “Caspase, Avg (luminescence)” value (Nluc; Inhibitor 5.85 μM) was 8059. For the same compound, the “Caspase, Avg (luminescence)” value (Nluc; Inhibitor 8.78 μM) was 6703, the “Caspase, Avg (luminescence)” value (Nluc; Inhibitor 13.17 μM) was 6014 and the “Caspase, Avg (luminescence)” value (Nluc; Inhibitor 19.75 μM) was 5095. The “Caspase, Avg (luminescence)” value (Nluc; Inhibitor 29.63 μM) was 5132, the “Caspase, Avg (luminescence)” value (Nluc; Inhibitor 44.44 μM) was 4419 and the “Caspase, Avg (luminescence)” value (Nluc; Inhibitor 66.67 μM) was 4017. For the same compound, the “Caspase, Avg (luminescence)” value (Nluc; Inhibitor 100 μM) was 3619, the “Inhibition of Nluc oriented extracellularly / intracellularly by imaging (FIG. 19)” value [2] was “inhibited Nluc in either orientation” and the “Inhibition of purified Nluc enzyme (FIG. 2)” value (purified Nluc enzyme) was “capable of inhibiting purified Nluc enzyme”.
